Laboratory results as given in the Kinase Knowledgebase extract (Sharma et al. 2016).
One block for each compound: values may come before it.

Legend:
EGFR (human) [1] = target: EGFR (human) (UniProt P00533); settings: concentration not given here
EGFR (human) [2] = target: EGFR (human) (UniProt P00533); settings: a431
PIK3CA = PIK3CA (UniProt P42336)
EGFR [3] = target: EGFR (UniProt P00533)
MAPK14 (human) [4] = target: MAPK14 (human) (UniProt Q16539); assay: Inhibition of MAPK14 Kinase Activity
MAPK14 (human), sequence (Q16539 whole entry, looked up): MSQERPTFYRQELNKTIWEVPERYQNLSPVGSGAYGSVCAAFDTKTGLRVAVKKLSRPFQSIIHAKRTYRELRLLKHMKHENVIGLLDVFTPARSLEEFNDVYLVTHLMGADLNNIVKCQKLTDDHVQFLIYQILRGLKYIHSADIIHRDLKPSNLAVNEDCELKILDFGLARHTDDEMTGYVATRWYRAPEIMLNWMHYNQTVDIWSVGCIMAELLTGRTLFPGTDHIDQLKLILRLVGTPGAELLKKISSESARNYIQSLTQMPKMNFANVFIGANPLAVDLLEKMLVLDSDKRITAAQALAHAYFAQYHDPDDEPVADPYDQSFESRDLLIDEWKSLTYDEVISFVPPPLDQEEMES

EGFR (human) [5] = target: EGFR (human) (UniProt P00533); settings: A431
EGFR (human) [6] = target: EGFR (human) (UniProt P00533)
EGFR (human) [7] = target: EGFR (human) (UniProt P00533); remark: listed apart in the source
EGFR [8] = target: EGFR (UniProt P00533); remark: listed apart in the source
CDK2 = CDK2 (UniProt P24941); assay: Enzyme Assay
CDK2 (human) [9] = target: CDK2 (human) (UniProt P24941)
MAPK14 (Balb/c mice) [10] = assay: Inhibition of LPS Induced TNF-alpha Release in Mice
ROCK2 (bovine) = ROCK2 (bovine) (UniProt Q28021); assay: Inhibition of RHO-Associated Coiled-Coil-Containing Protein Kinase 2 Activity
ROCK2 (bovine), sequence (Q28021 whole entry, looked up): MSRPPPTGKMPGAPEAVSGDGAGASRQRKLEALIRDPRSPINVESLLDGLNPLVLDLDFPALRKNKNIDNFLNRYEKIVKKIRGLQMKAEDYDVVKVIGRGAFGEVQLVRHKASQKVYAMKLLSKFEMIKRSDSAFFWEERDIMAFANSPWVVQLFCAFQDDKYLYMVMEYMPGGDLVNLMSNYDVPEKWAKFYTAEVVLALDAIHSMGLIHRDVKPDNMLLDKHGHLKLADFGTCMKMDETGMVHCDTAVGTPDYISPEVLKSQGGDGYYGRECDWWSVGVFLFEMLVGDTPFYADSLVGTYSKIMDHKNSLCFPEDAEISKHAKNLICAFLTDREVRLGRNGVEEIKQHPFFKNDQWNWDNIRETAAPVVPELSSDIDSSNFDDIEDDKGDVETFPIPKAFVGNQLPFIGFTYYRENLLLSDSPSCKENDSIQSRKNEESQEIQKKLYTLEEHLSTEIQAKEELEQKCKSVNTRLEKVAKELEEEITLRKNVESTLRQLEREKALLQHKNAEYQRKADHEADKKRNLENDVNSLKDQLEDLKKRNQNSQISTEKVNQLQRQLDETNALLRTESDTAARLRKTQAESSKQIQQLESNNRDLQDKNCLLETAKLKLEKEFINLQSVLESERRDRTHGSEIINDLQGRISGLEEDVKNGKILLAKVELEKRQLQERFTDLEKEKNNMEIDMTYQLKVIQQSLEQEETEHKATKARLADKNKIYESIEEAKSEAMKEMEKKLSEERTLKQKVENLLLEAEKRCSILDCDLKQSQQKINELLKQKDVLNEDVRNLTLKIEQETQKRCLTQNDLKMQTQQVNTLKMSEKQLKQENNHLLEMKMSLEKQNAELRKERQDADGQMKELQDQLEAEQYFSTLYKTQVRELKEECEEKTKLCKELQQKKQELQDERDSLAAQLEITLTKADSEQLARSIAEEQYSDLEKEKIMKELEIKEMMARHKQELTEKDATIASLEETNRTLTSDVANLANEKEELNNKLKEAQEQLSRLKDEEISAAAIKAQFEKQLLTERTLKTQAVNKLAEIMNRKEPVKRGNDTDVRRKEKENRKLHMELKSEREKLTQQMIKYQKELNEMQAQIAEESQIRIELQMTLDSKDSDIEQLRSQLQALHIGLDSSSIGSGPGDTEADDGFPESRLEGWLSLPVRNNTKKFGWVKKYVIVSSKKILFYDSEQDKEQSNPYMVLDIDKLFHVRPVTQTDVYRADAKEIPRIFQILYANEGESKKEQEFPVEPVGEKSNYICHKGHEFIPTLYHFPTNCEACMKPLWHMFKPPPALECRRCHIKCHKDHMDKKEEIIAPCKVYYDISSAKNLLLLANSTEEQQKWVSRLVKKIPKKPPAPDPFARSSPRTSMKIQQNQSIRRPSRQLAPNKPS

EGFR (human) [11] = target: EGFR (human) (UniProt P00533); remark: listed apart in the source
EGFR [12] = target: EGFR (UniProt P00533); remark: listed apart in the source
EGFR [13] = target: EGFR (UniProt P00533); settings: concentration not given here
EGFR (human) [14] = target: EGFR (human) (UniProt P00533); remark: listed apart in the source
EGFR [15] = target: EGFR (UniProt P00533); remark: listed apart in the source
ROCK2 (human) = ROCK2 (human) (UniProt O75116); assay: Assessment of ROCK2 Kinase Acitvity
EGFR [16] = target: EGFR (UniProt P00533); remark: listed apart in the source
EGFR (human) [17] = target: EGFR (human) (UniProt P00533); remark: listed apart in the source
EGFR [18] = target: EGFR (UniProt P00533); remark: listed apart in the source
MAPK14 (human) [19] = target: MAPK14 (human) (UniProt Q16539); assay: Inhibition of TNF-alpha Release from LPS Stimulated hPBMCs; settings: pbmc
MAPK14 (Balb/c mice) [20] = assay: Animal Model; settings: dose or concentration not given here
MAPK14 [21] = target: MAPK14 (UniProt Q16539); assay: Enzyme Assay
MAPK14, sequence (Q16539 whole entry, looked up): as the sequence (Q16539 whole entry, looked up) above

EGFR (human) [22] = target: EGFR (human) (UniProt P00533); settings: a431; remark: listed apart in the source
CDK2 (human) [23] = target: CDK2 (human) (UniProt P24941); assay: Cell-Based Assay; settings: mcf-7
EGFR [24] = target: EGFR (UniProt P00533); remark: listed apart in the source
MAPK14 [25] = target: MAPK14 (UniProt Q16539); assay: Inhibition of MAPK14 Kinase Activity
EGFR (human) [26] = target: EGFR (human) (UniProt P00533); settings: kb
EGFR (human) [27] = target: EGFR (human) (UniProt P00533); remark: listed apart in the source
EGFR (human) [28] = target: EGFR (human) (UniProt P00533); settings: A431; remark: listed apart in the source
EGFR (human) [29] = target: EGFR (human) (UniProt P00533); settings: nih3t3

EGFR, sequence (P00533 whole entry, looked up): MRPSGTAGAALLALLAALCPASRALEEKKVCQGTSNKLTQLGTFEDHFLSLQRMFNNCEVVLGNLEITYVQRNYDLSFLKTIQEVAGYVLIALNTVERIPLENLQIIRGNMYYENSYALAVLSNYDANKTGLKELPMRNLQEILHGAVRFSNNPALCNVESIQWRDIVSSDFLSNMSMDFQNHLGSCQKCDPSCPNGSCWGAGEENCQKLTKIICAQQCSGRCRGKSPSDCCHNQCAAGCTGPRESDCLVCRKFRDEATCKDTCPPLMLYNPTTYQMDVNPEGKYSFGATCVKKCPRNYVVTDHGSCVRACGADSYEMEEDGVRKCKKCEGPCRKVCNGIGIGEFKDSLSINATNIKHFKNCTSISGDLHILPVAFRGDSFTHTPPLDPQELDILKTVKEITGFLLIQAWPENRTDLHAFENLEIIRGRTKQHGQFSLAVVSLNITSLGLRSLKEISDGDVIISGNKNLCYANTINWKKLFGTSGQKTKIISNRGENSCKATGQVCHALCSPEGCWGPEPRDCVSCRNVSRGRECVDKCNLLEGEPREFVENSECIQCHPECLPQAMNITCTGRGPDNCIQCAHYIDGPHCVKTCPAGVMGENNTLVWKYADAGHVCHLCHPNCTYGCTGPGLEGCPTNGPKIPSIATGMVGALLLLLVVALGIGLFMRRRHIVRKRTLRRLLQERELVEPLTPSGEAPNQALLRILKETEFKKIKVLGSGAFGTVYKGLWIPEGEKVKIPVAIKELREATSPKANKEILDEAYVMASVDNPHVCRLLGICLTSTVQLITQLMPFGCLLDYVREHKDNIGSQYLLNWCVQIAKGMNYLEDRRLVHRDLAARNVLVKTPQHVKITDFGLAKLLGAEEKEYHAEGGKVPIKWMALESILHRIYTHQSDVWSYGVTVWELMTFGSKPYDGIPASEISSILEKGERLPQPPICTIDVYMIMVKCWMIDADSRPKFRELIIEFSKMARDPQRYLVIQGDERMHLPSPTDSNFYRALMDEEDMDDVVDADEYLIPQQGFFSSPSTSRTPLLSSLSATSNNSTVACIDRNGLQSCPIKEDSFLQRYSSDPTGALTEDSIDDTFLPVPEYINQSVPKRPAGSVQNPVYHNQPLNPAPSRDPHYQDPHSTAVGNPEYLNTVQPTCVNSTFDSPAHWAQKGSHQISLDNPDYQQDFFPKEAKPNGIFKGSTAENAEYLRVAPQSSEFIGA
EGFR (human), sequence (P00533 whole entry, looked up): as above

Structure (SMILES): N#Cc1cnc2sc(C(=O)Nc3ccc(NCCCN4CCOCC4)cc3)c3c2c1N(c1c(Cl)ccc2c1OCO2)C(=O)N3
inhibition (EGFR (human) [1]): 11%

Structure (SMILES): O=c1cc(N2CCOCC2)oc2c(-c3cccc4c3sc3ccccc34)cccc12
IC50 (PIK3CA): 5 µM

Structure (SMILES): O=C(CCCNc1ncc(C(F)(F)F)cc1Cl)NNS(=O)(=O)c1ccc(CNC(=O)c2ccc(Cl)cc2)s1
IC50 (EGFR [3]): > 10 µM
IC50 (MAPK14 (human) [4]): > 10 µM

Structure (SMILES): Nc1nc(Nc2ccc(S(N)(=O)=O)cc2)nn1C(=O)c1c(F)cccc1F
IC50 (EGFR (human) [5]): > 100 µM
IC50 (EGFR (human) [6]): > 100 µM
IC50 (EGFR (human) [7]): > 10 µM

Structure (SMILES): NC(=O)c1c(NC(=O)CN2C(=O)CCC2=O)sc2c1CCC2
IC50 (CDK2 (human) [9]): 8 µM

Structure (SMILES): CONC(=O)c1ccc(C)c(Nc2nc(N(C)CC(C)(C)C)nc(N3CCCN(C)CC3)n2)c1
ED50 (MAPK14 (Balb/c mice) [10]): Between 3 to 10 mg kg-1
Ki (MAPK14 (human) [4]): 4.2 nM

Structure (SMILES): COc1cc2c(Nc3ncc(CCNC(=O)c4cccc(F)c4)s3)ncnc2cc1OCCCN1CCCC1
IC50 (EGFR (human) [11]): > 100 µM

Structure (SMILES): CN(C)CC(=O)N1CCC[C@@H]1COc1cccc2ncnc(Nc3ccc(OCc4cncs4)c(Cl)c3)c12
IC50 (EGFR (human) [14]): 260 nM

Structure (SMILES): CN1CCN(c2ccc3[nH]c(-c4cc(-c5ccc(NC(=O)Nc6cccc(Cl)c6)cc5)[nH]n4)nc3c2)CC1
IC50 (EGFR (human) [17]): ≥ 5 µM

Structure (SMILES): Cc1cc(-c2[nH]c(-c3ccc([S+](C)[O-])cc3)nc2-c2ccc(F)cc2)ccn1 (stereo not given)
difference (MAPK14 (Balb/c mice) [20]): -64%
IC50 (MAPK14 [21]): 370 nM

Structure (SMILES): COCCNS(=O)(=O)c1ccc(Nc2nccc(-c3cnc4cccnn34)n2)cc1
IC50 (CDK2 (human) [23]): 390 nM
IC50 (EGFR [24]): > 10 µM
IC50 (MAPK14 [25]): > 10 µM

More lines, now with the values ahead:

IC50 (EGFR (human) [2]): 67 nM
Structure (SMILES): CCOc1cc2ncc(C#N)c(Nc3ccc(OCc4ccccn4)c(Cl)c3)c2cc1NC(=O)/C=C/CNC

IC50 (EGFR [8]): > 10 µM
IC50 (CDK2): > 10 µM
Structure (SMILES): CCc1cccc(CC)c1NC(=O)N1Cc2[nH]nc(NC(=O)c3ccc(N4CCN(C)CC4)cc3)c2C1

IC50 (ROCK2 (bovine)): 530 nM
Structure (SMILES): CC(C)c1ccc(CN2CCCC(Nc3cccc4cnccc34)C2)cc1 (stereo not given)

IC50 (EGFR [12]): > 10 µM
Structure (SMILES): c1ccc(-c2cnc(Nc3ccc(OCCN4CCCC4)cc3)s2)cc1

inhibition (EGFR [13]): 14%
Structure (SMILES): CC(C)(C)c1ccc(Nc2nnc(-c3ccc(C(N)=O)cc3)c3ccccc23)cc1

IC50 (EGFR [15]): > 10 µM
Structure (SMILES): CNc1ncc(-c2ccc(C(=O)N[C@H](CN)Cc3ccc(Cl)cc3Cl)s2)cn1

IC50 (ROCK2 (human)): < 10 nM
Structure (SMILES): NC[C@@](O)(c1ccc(Cl)cc1)c1ccc(-c2cn[nH]c2)cc1

IC50 (CDK2): > 10 µM
IC50 (EGFR [16]): 8 µM
Structure (SMILES): COc1cc(OC)c(/C=C/S(=O)(=O)Cc2ccc(OC)c(NC(C)C(=O)O)c2)c(OC)c1 (stereo not given)

IC50 (EGFR [18]): 8.58 µM
Structure (SMILES): COCCN(C)CCOc1ccc2[nH]c(-c3cc4ccccc4[nH]c3=O)cc2c1

IC50 (MAPK14 (human) [19]): > 10 µM
Structure (SMILES): Cc1ccc(S(=O)(=O)Nc2ccc3c(c2)CNC(=O)N3c2c(Cl)cccc2Cl)cc1

IC50 (EGFR (human) [22]): 12.6 µM
Structure (SMILES): C=CC(=O)Cc1ccc2ncnc(Nc3cccc(Br)c3)c2c1

IC50 (EGFR (human) [26]): 10 nM
IC50 (EGFR (human) [27]): 2 nM
Structure (SMILES): COc1cc2ncnc(Nc3cccc(Cl)c3F)c2cc1OC1CCN(C(=O)OCCN2CCCCC2)CC1

IC50 (EGFR (human) [28]): 14 nM
Structure (SMILES): CCc1cc2cccc(C#CCCc3ccccc3)c2cc1CC

IC50 (EGFR (human) [29]): > 10 µM
Structure (SMILES): Cc1cc(Nc2ncnc3ccc(N4CCOCC4)cc23)ccc1OC1CCN(C(=O)CC(C)(C)C)CC1
